For data set [1], the target named is T1, noradrenaline (NA) reuptake in synaptosomes (Rattus norvegicus, UniProt Q63380).
T1 construct: in synaptosomes as described in WO 97/16451; from tissue
As to the kind of experiment: Inhibition of NA reuptake in synaptosomes. It counts as biochemical. Particulars: 3H-NA, read-out: NA-uptake IC50. As to the method:
(§1) Compounds were tested for their ability to inhibit the reuptake of the monoamine neurotransmitters dopamine (DA) noradrenaline (NA) and serotonine (5-HT) in synaptosomes as described in WO 97/16451 (NeuroSearch A/S).
(§2) The test values are given as IC50 (the concentration (μM) of the test substance which inhibits the specific binding of ^3H-DA, ^3H-NA, or ^3H-5-HT by 50%).

Data set [2] addresses T2, serotonine (5-HT) reuptake in synaptosomes (Rattus norvegicus, UniProt P31652).
T2 construct: in synaptosomes as described in WO 97/16451; from tissue
Kind of data set: Inhibition of 5-HT reuptake in synaptosomes. It is filed as biochemical. Particulars: 3H-5-HT, read-out: 5-HT-uptake IC50. As to the method:
as §1, §2

Data set [3] addresses T3, dopamine (DA) reuptake in synaptosomes (Rattus norvegicus, UniProt P23977).
T3 construct: in synaptosomes as described in WO 97/16451; from tissue
Kind of data set: Inhibition of DA reuptake in synaptosomes. Particulars: 3H-DA, read-out: DA-uptake IC50. It counts as biochemical. As to the method: as §1, §2

The values below come from patent publication US20110053984A1, “NOVEL 4-BENZHYDRYLOXY-TETRAALKYL-PIPERIDINE DERIVATIVES AND THEIR USE AS MONOAMINE NEUROTRANSMITTER RE-UPTAKE INHIBITORS” (NeuroSearch A/S, priority 2008, published 2011).

Structures are written as SMILES. Structures can show the parent of a compound that is named as a salt. A value given as a limit tells only on which side of the number the result lay.

T3 sequence (P23977 whole entry): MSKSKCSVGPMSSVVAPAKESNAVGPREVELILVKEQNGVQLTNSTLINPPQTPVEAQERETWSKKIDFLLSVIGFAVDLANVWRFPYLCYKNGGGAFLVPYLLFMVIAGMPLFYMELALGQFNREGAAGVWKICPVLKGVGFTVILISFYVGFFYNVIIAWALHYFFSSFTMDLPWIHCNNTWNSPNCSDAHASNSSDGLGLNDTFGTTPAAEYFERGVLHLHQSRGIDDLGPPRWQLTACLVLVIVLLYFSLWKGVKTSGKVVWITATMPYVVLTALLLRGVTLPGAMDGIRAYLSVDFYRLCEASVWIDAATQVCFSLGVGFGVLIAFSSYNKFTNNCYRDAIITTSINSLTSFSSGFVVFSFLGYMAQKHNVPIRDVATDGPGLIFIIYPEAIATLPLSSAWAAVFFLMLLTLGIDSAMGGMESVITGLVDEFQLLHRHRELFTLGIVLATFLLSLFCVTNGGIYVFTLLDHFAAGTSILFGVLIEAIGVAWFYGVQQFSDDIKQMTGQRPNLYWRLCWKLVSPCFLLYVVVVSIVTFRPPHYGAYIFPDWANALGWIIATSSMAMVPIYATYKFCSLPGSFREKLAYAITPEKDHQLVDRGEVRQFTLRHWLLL
T2 sequence (P31652 whole entry): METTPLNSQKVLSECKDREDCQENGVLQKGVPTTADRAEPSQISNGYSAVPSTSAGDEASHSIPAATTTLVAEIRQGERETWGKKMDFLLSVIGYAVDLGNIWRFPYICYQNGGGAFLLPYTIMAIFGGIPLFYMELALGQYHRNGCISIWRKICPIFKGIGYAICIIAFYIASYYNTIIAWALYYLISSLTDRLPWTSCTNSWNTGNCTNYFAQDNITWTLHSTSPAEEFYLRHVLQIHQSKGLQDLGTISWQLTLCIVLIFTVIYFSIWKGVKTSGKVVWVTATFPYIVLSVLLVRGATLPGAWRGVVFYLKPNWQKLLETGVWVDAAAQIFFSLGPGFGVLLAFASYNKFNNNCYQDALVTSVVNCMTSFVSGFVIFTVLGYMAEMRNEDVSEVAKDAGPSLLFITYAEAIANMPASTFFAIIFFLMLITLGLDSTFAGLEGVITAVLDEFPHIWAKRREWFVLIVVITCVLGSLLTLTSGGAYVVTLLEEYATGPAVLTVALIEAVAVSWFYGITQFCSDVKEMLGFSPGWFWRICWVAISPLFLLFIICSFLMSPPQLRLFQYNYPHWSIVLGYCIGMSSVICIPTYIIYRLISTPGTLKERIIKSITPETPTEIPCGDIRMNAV
T1 sequence (Q63380 1-617): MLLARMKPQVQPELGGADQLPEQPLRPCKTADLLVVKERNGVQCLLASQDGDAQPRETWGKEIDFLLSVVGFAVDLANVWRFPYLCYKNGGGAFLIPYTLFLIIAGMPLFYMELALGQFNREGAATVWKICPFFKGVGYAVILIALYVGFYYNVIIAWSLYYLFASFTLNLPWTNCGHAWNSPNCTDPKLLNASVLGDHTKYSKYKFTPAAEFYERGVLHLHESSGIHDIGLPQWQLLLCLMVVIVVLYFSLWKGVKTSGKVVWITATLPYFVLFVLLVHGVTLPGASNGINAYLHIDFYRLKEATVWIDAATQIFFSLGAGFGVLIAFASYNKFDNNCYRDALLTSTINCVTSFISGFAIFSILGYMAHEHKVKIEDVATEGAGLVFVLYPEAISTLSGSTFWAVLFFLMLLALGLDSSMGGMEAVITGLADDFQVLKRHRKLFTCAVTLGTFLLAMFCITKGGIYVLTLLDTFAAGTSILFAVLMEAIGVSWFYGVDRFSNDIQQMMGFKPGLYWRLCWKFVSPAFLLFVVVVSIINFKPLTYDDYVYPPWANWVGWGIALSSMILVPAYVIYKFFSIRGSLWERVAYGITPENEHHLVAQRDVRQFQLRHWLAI

The compound `CC1(C)CC(OC(c2ccccc2)c2ccccc2)CC(C)(C)N1` (as salt: hydrochloric acid salt) [4-Benzhydryloxy-2,2,6,6-tetramethyl-piperidine] registered a melting point of 184.1 to 185.9 °C.

The compound `CC1(C)CC(OC(c2ccc(F)cc2)c2ccc(F)cc2)CC(C)(C)N1` (as salt: hydrochloric acid salt) [4-[Bis-(4-fluoro-phenyl)-methoxy]-2,2,6,6-tetramethyl-piperidine] came in with a melting point of 242 to 265 °C.

With `CC1(C)CC(OC(c2ccccc2)c2ccccc2)CC(C)(C)N1` [4-Benzhydryloxy-2,2,6,6-tetramethyl-piperidine], the figures for the IC50 in data set [1], in data set [2] and in data set [3] were 60 nM, 26000 nM and 400 nM, respectively.

Consider `CC1(C)CC(OC(c2ccc(F)cc2)c2ccc(F)cc2)CC(C)(C)N1` [4-[Bis-(4-fluoro-phenyl)-methoxy]-2,2,6,6-tetramethyl-piperidine], for which the half-maximal inhibitory concentration (IC50) in data set [1] was 590 nM; in data set [2], over 1000 nM; in data set [3], 38 nM.
